# ChEMBL document CHEMBL5584280, “Optimization of Novel Pyrido-pyridazinone Derivatives as FER Tyrosine Kinase Inhibitors, Leading to the Potent DS08701581” (ACS Med Chem Lett, 2024)
# Legend:
# [1] = system: BaF3; assay: Inhibition of cell viability in mouse BaF3 cells incubated for 3 days by Cell Titer Glo assay; format: functional; settings: BaF3, 72 h, time 3 day
# [2] = system: BaF3; assay: Inhibition of cell viability in mouse BaF3 cells expressing FER incubated for 3 days by Cell Titer Glo assay; format: functional; settings: BaF3, 72 h, time 3 day
# [3] = Solubility of compound in buffer at pH 6.8 incubated for 4 hrs by HPLC-UV analysis; format: physicochemical
# [4] = target: Tyrosine-protein kinase SYK (Homo sapiens) (UniProt P43405); assay: Inhibition of SYK (unknown origin) at 200 nM in presence of ATP by kinase profiling analysis relative to control
# [5] = target: Protein-tyrosine kinase 2-beta (Homo sapiens) (UniProt Q14289); assay: Inhibition of PTK2B (unknown origin) at 200 nM in presence of ATP by kinase profiling analysis relative to control
# Chain of Protein-tyrosine kinase 2-beta (Homo sapiens) (Q14289 whole entry, looked up): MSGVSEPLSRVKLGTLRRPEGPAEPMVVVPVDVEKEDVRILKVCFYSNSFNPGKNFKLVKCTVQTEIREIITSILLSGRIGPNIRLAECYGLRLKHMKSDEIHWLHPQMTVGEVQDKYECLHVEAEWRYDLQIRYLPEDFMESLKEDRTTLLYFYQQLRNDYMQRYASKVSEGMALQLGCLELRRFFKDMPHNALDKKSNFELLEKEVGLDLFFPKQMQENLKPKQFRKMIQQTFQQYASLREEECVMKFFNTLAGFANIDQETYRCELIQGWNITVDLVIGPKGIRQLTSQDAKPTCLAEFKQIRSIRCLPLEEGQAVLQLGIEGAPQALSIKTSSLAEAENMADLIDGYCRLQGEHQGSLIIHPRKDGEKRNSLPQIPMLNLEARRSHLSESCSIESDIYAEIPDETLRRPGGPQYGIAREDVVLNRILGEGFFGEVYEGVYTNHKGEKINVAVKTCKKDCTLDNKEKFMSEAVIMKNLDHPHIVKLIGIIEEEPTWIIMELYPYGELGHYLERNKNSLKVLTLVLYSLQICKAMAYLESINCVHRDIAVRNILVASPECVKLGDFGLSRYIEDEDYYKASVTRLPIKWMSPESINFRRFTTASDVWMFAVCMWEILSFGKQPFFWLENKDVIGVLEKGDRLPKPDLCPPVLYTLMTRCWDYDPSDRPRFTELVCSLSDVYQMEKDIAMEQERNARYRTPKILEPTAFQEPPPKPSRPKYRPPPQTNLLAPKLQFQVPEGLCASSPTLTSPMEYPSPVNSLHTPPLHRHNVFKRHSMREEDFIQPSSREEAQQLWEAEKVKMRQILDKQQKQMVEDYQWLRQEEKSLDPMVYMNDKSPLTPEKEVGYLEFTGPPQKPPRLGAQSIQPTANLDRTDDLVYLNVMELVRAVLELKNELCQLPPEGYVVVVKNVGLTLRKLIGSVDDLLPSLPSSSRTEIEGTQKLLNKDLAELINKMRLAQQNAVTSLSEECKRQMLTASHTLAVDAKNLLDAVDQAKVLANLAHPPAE
# [6] = Protein binding in BALB/c mouse serum at 10 ug/ml incubated for 4 hrs by equilibrium dialysis; format: ADME, cell-free; settings: at 10 µg/mL, read-out: PB (converted)
# [7] = target: ALK tyrosine kinase receptor (Homo sapiens) (UniProt Q9UM73); assay: Inhibition of ALK (unknown origin) at 200 nM in presence of ATP by kinase profiling analysis relative to control
# Chain of ALK tyrosine kinase receptor (Homo sapiens) (Q9UM73 19-1620 limits assumed): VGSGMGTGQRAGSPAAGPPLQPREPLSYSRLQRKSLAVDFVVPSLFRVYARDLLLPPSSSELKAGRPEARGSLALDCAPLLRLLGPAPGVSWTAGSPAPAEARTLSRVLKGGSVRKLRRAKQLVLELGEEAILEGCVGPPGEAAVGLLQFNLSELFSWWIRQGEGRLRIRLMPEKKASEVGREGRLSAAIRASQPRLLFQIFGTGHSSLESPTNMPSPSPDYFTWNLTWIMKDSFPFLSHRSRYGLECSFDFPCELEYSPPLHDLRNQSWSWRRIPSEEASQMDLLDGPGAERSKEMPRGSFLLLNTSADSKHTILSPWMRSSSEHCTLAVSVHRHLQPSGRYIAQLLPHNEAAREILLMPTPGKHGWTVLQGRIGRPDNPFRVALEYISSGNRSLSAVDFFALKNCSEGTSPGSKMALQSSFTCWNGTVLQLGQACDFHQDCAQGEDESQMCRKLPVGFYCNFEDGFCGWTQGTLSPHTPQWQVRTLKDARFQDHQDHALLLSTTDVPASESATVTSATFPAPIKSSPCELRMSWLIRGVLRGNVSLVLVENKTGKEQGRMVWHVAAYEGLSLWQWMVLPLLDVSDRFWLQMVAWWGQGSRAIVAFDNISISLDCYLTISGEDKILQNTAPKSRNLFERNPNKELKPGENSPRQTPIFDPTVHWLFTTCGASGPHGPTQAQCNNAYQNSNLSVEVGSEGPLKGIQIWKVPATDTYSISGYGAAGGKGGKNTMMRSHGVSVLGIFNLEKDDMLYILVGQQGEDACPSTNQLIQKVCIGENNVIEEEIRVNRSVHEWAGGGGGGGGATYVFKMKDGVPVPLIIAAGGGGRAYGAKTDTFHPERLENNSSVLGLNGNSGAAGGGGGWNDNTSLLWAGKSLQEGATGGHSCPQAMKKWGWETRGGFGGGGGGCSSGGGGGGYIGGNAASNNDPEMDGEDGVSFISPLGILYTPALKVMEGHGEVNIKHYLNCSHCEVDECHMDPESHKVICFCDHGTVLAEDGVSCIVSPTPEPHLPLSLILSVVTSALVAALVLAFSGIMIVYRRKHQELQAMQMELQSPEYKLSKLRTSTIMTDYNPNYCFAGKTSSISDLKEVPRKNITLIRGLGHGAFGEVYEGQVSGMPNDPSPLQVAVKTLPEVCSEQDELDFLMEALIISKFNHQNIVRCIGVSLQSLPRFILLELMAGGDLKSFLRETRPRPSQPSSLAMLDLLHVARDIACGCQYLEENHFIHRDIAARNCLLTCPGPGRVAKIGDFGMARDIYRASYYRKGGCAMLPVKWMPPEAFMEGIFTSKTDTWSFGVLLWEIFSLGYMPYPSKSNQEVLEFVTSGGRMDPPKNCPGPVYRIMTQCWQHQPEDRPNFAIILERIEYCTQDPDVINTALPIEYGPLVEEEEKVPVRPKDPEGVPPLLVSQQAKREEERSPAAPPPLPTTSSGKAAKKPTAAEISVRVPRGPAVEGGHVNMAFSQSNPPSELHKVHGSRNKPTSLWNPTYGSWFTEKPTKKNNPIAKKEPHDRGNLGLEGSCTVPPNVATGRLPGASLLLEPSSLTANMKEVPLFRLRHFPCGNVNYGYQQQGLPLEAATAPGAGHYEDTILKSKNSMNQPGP
# [8] = system: BaF3; assay: Antitumor activity against […] mouse BaF3 cells expressing FER xenografted in BALB/cAJcl-nu/nu mouse administered orally once a day for 4 days; format: functional, cell-based; settings: dose 6.25-100 mg/kg, route po, time 4.0 day
# [9] = Cmax in BALB/cAnNCrlCrlj mouse at 10 mg/kg, po; format: ADME, organism-based; settings: in vivo
# [10] = target: Receptor-type tyrosine-protein kinase FLT3 (Homo sapiens) (UniProt P36888); assay: Inhibition of FLT3 (unknown origin) at 200 nM in presence of ATP by kinase profiling analysis relative to control
# Chain of Receptor-type tyrosine-protein kinase FLT3 (Homo sapiens) (P36888 whole entry): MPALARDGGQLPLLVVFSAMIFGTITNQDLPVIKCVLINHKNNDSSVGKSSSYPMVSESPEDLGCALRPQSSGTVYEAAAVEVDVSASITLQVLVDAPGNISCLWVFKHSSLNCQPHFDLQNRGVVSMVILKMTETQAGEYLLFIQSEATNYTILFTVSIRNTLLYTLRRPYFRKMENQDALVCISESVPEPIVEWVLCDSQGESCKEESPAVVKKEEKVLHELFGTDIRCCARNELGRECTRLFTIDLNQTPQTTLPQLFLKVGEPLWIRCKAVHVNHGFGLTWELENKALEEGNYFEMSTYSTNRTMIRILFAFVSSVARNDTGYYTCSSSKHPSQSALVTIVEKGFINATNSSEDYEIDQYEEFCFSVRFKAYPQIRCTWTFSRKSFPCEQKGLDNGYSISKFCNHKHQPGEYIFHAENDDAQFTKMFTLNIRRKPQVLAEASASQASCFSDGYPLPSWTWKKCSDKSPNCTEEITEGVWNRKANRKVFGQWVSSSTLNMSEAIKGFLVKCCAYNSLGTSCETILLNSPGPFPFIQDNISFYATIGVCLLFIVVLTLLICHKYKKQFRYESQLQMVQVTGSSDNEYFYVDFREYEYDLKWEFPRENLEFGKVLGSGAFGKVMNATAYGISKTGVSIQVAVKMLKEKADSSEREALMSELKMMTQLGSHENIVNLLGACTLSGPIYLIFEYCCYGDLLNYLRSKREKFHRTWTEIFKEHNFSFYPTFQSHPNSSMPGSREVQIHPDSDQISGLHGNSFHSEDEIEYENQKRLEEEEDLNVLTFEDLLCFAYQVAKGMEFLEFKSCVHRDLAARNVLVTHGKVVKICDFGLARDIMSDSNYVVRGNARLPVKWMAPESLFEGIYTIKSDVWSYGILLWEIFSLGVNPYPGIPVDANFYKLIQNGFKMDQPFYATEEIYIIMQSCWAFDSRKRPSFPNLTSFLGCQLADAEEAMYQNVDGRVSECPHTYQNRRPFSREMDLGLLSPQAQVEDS
# [11] = target: T1, Testis-specific serine/threonine-protein kinase 1 (Homo sapiens) (UniProt Q9BXA7); assay: Inhibition of TSSK1B (unknown origin) at 200 nM in presence of ATP by kinase profiling analysis relative to control
# T1 sequence (whole entry): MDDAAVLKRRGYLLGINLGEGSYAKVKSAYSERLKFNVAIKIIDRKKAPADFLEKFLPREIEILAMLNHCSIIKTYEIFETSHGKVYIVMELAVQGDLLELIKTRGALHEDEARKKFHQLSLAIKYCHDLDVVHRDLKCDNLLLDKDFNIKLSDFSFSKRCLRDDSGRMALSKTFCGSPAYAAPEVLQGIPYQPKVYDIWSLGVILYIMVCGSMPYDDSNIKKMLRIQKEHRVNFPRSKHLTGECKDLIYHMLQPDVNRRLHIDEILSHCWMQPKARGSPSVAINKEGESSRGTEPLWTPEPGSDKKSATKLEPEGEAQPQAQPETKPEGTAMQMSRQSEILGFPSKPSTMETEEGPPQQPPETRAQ
# [12] = target: Serine/threonine-protein kinase Chk2 (Homo sapiens) (UniProt O96017); assay: Inhibition of CHEK2 (unknown origin) at 200 nM in presence of ATP by kinase profiling analysis relative to control
# Chain of Serine/threonine-protein kinase Chk2 (Homo sapiens) (O96017 whole entry): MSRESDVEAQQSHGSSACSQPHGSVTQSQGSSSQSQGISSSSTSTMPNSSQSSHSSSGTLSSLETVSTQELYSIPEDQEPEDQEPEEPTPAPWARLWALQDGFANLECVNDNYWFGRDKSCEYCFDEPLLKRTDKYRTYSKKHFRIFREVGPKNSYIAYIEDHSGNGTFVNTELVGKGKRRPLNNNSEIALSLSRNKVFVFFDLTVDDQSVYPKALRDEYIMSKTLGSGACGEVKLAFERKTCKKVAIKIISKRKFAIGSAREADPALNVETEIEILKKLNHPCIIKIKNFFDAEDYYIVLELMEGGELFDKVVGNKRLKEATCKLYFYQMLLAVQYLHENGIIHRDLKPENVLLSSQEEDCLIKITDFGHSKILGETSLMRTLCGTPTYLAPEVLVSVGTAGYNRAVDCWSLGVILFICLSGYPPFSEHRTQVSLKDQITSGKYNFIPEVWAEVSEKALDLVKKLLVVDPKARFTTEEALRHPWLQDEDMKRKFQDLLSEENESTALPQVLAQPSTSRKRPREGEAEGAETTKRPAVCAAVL
# [13] = AUC in BALB/cAnNCrlCrlj mouse at 10 mg/kg, po; format: ADME, organism-based; settings: in vivo
# [14] = Toxicity in BALB/cAJcl-nu/nu mouse xenografted with […] mouse BaF3 cells expressing FER at 6.25 to 100 mg/kg, po qd for 10 days; format: organism-based; settings: in vivo, 240 h, dose 6.25-100 mg/kg, time 10 day
# [15] = Oral bioavailability in BALB/cAnNCrlCrlj mouse at 10 mg/kg; format: ADME, organism-based; settings: in vivo
# [16] = Solubility of compound in FaSSIF incubated for 4 hrs by HPLC-UV analysis; format: ADME
# [17] = Metabolic stability in CD-1 mouse liver microsomes assessed as compound remaining at 1 uM incubated for 30 mins by LC-MS/MS analysis; format: ADME, Microsome; settings: read-out: Stability
# [18] = Total plasma clearance in BALB/cAnNCrlCrlj mouse at 1 mg/kg, iv; format: ADME, organism-based
# [19] = Permeability co-efficient of compound at 5 uM incubated for 4 hrs by PAMPA; format: ADME; settings: read-out: Peff
# [20] = target: Leukocyte tyrosine kinase receptor (Homo sapiens) (UniProt P29376); assay: Inhibition of LTK (unknown origin) at 200 nM in presence of ATP by kinase profiling analysis relative to control
# [21] = species: Homo sapiens; assay: Inhibition of NTRK1 (unknown origin) at 200 nM in presence of ATP by kinase profiling analysis relative to control
# [22] = target: Proto-oncogene tyrosine-protein kinase ROS (Homo sapiens) (UniProt P08922); assay: Inhibition of ROS1 (unknown origin) at 200 nM in presence of ATP by kinase profiling analysis relative to control
# [23] = target: Tyrosine-protein kinase Fer (Homo sapiens, UniProt P16591); assay: Inhibition of N-terminal His-tagged recombinant human FER using FL-Peptide22 as substrate incubated for 90 mins in presence of ATP
# Chain of Tyrosine-protein kinase Fer (P16591 whole entry): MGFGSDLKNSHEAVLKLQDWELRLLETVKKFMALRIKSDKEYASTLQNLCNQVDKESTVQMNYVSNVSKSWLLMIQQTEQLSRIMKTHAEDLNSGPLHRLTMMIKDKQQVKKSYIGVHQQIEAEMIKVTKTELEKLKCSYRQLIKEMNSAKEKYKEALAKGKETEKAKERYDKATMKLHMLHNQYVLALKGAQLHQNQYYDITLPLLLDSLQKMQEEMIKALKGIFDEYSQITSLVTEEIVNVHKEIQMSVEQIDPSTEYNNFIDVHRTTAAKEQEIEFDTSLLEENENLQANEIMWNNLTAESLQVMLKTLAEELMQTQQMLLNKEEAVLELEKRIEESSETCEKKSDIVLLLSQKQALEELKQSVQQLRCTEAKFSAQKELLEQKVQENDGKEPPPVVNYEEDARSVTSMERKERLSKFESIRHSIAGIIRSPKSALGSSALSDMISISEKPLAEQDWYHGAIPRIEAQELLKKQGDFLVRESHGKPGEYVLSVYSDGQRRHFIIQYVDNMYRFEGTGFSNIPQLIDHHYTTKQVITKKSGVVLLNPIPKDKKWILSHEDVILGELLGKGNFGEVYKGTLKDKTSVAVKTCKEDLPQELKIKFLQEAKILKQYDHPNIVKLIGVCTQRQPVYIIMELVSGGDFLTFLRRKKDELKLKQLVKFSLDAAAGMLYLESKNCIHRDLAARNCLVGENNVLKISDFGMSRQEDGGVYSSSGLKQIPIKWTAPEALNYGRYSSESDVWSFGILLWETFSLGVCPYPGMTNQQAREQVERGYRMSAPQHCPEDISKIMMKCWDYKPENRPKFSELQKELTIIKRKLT
# [24] = Toxicity in BALB/cAJcl-nu/nu mouse xenografted with […] mouse BaF3 cells expressing FER at 100 mg/kg, po qd for 10 days; format: organism-based; settings: in vivo, 240 h, time 10 day
# [25] = target: Mitogen-activated protein kinase kinase kinase kinase 4 (Homo sapiens) (UniProt O95819); assay: Inhibition of MAP4K4 (unknown origin) at 200 nM in presence of ATP by kinase profiling analysis relative to control
# [26] = target: Cyclin-dependent kinase 2 (Homo sapiens) (UniProt P24941); assay: Inhibition of CDK2 (unknown origin) at 200 nM in presence of ATP by kinase profiling analysis relative to control
# [27] = target: Mast/stem cell growth factor receptor Kit (Homo sapiens) (UniProt P10721); assay: Inhibition of KIT (unknown origin) at 200 nM in presence of ATP by kinase profiling analysis relative to control
# [28] = target: Macrophage colony-stimulating factor 1 receptor (Homo sapiens) (UniProt P07333); assay: Inhibition of CSF1R (unknown origin) at 200 nM in presence of ATP by kinase profiling analysis relative to control
smiles,measurement,setting,value
CCOc1cccc(Nc2nc(NC3CCCCC3N)c(F)c3cn[nH]c(=O)c23)c1 (racemic),GI50,[1],1600 nM
same,GI50,[2],50 nM
N#Cc1c(N[C@@H]2CCCC[C@@H]2N)nc(Nc2cccc(N3CC4(COC4)C3)c2)c2c(=O)[nH]ncc12,GI50,[1],362 nM
same,GI50,[2],0.36 nM
Cc1cccc(Nc2nc(NC3CCCCC3N)c(F)c3cn[nH]c(=O)c23)c1 (racemic),GI50,[1],1230 nM
same,GI50,[2],30 nM
N[C@H]1CCCC[C@H]1Nc1nc(Nc2cccc(N3CCOCC3)c2)c2c(=O)[nH]ncc2c1F,GI50,[1],1200 nM
same,GI50,[2],4.7 nM
N#Cc1c(N[C@@H]2CCCC[C@@H]2N)nc(Nc2cccc(N3CCOCC3)c2)c2c(=O)[nH]ncc12,GI50,[1],310 nM
same,GI50,[2],1.2 nM
C[C@@H]1CN(c2cccc(Nc3nc(N[C@@H]4CCCC[C@@H]4N)c(C#N)c4cn[nH]c(=O)c34)c2)C[C@H](C)O1,solubility at 4 h,[3],6.7 µg/mL
same,GI50,[1],1000 nM
same,inhibition,[4],> 90%
same,inhibition,[5],> 90%
same,"fraction unbound at 4 h, 10 ug/ml",[6],0.03
same,GI50,[2],0.67 nM
same,inhibition,[7],> 90%
same,Activity,[8],Dose-Dependent Effect
same,Cmax,[9],630 ng/mL
same,inhibition,[10],> 90%
same,inhibition,[11],> 90%
same,inhibition,[12],> 90%
same,AUC,[13],8200 ng·h/mL
same,Activity,[14],Non-Toxic
same,bioavailability,[15],65%
same,solubility at 4 h,[16],30 µg/mL
same,"remaining at 0.5 h, 1 µM",[17],85%
same,clearance,[18],13 mL/min/kg
same,"Papp at 4 h, 5 µM",[19],> 50 ×10⁻⁶ cm/s
same,inhibition,[20],> 90%
Cn1cc(Nc2nc(NC3CCCCC3N)c(F)c3cn[nH]c(=O)c23)cn1 (racemic),GI50,[1],340 nM
same,GI50,[2],57 nM
Cc1cccc(Nc2nc(NC3CCCCC3N)c(C#N)c3cn[nH]c(=O)c23)c1 (centres undefined),inhibition,[21],> 90%
same,solubility at 4 h,[3],0.9 µg/mL
same,GI50,[1],220 nM
same,inhibition,[4],> 90%
same,inhibition,[5],> 90%
same,"fraction unbound at 4 h, 10 ug/ml",[6],0.01
same,GI50,[2],1.9 nM
same,inhibition,[7],> 90%
same,inhibition,[22],> 90%
same,IC50,[23],0.49 nM
same,Activity,[24],Toxic
same,Cmax,[9],360 ng/mL
same,inhibition,[10],> 90%
same,inhibition,[11],> 90%
same,inhibition,[12],> 90%
same,AUC,[13],4800 ng·h/mL
same,inhibition,[25],> 90%
same,bioavailability,[15],34%
same,solubility at 4 h,[16],2.1 µg/mL
same,"remaining at 0.5 h, 1 µM",[17],96%
same,clearance,[18],12 mL/min/kg
same,"Papp at 4 h, 5 µM",[19],> 50 ×10⁻⁶ cm/s
same,inhibition,[26],> 90%
same,inhibition,[27],> 90%
same,inhibition,[28],> 90%
CN1CCN(c2cccc(Nc3nc(NC4CCCCC4N)c(F)c4cn[nH]c(=O)c34)c2)CC1 (racemic),GI50,[1],630 nM
same,GI50,[2],76 nM
